# Measurements reported in PMC9321043, “Synthesis, Structure–Activity Relationships, and Parasitological Profiling of Brussonol Derivatives as New Plasmodium falciparum Inhibitors” (Pharmaceuticals, 2022).
# How the values were obtained:
# [1] = test system: HepG2 cells; experiment: Cytotoxic test on immortalized cells, MTT; assay type: cell-based, human; conditions: Homo sapiens, HepG2, 72 h
# Method: The cytotoxic effects of brussonol and derivatives were evaluated against the human hepatocellular carcinoma cell line (HepG2). The cells were cultivated in an RPMI medium supplemented with 10% (v/v) fetal bovine serum and 25 µg/mL gentamicin. Conditions for the cultivation of these cells were 37 °C and 5% CO2, and every 2 days the supplemented medium was changed.
# For experimental procedures, the cells were trypsinized and transferred to a 96-well plate at 30,000 cells per well (180 µL). The plate was incubated at 37 °C and 5% CO2 to allow cell adhesion. Next, 20 µL of serial dilutions of the compounds tested were added to the plate, with a range of concentrations tested from 400–6.25 µM. Cells without any compounds were used as a positive control for growing and the wells containing only medium were used as negative controls. The plate was incubated for 72 h at 37 °C and 5% CO2. After incubation, a microscope was used to determine the highest compound concentration to be used in the experiments (highest concentration without precipitation). A colorimetric assay was used to evaluate cytotoxicity. This assay is based on the metabolic cell activity in the presence of 3-(4,5-dimethylthiazol-2-yl)-2,5-diphenyltetrazolium bromide (MTT). Shortly after incubation, 20 µL of a solution of MTT at 5 mg/mL (solubilized in phosphate buffer) is added to each well. The plate is incubated for 3 to 4 h at 37 °C to allow MTT cleavage in living cells. Then, the supernatant is removed, and 100 µL of dimethylsulfoxide (DMSO) is added to solubilize the purple formazan crystals. The absorbance, which is proportional to the number of viable cells, was determined using a SpectraMAX Plus 384 plate reader (Molecular Devices Corp., Sunnyvale, CA) (λ = 570 nm). All compounds described here were purchased from Sigma-Aldrich (verificar local).
# After the IC50 against the parasite and the human cell line is determined, it is possible to calculate the SI. It is calculated as the formula below:SI = IC50^HepG2/IC50^Pf.
# For our reference, compounds with SI values higher than 10 are considered well tolerated by the cellular model used, and they are considered for further evaluation.
# [2] = test system: P. knowlesi; experiment: In vitro evaluation against P. knowlesi, NanoLuc luminescence; assay type: cell-based; conditions: Plasmodium knowlesi, 40 h
# Method: The P. falciparum strains were cultivated in human blood cells (hRBC) O^+, while P. knowlesi was cultivated in rhesus red blood cells (rRBC) as described. P. falciparum complete RPMI (consisting of RPMI-1640, supplemented with 0.2% NaHCO3, 25 mM HEPES (pH 7.4), 11 mM D-glucose, 10 mg/L hypoxanthine, 25 mg/L gentamicin, and 0.5% (m/v) AlbuMAX II). The parasitemias of these cultures were maintained below 10% with 2.5% hematocrit. P. knowlesi complete RPMI (consisting of RPMI-1640 supplemented with 25 mM HEPES, […] hypoxanthine, 0.26% NaHCO3, 10 mg/L gentamicin, and 1% Albumax II). This culture was maintained with RBCs up to 5% hematocrit. The culture medium was changed daily, and all cultures were maintained under a 90% N2/5% CO2/5% O2 gas mixture at 37 °C. All compounds were purchased from Sigma-Aldrich (Cotia, Brazil).
# Blood-stage P. knowlesi cultures were diluted to 0.5% parasitemia and brought to 2% hematocrit for growth in 96-well plates containing the desired drug concentration series (200 µL of culture/well). […] Parasite growth in the plates was measured by luminescence (NanoLuc method). […] The plates were then incubated for 3 min at room temperature and the luminescence was assessed using a plate luminometer (Molecular Devices, San Jose, CA, USA) with 1 s integration time. Luminescence readings were normalized to values from control wells containing no drug. […]
structure (smiles),measurement,setting,value
"CC(C)c1cc2c(c(O)c1O)C[C@@]13CCCC(C)(C)[C@@H]1C[C@@H]2O3 [Compound 1, brussonol]",IC50,[1],67 ± 4 µM
same,IC50,[2],20 ± 4 µM
